# Assay: Inhibition of PHA-stimulated IL2 secretion in human Jurkat T cells preincubated for 10 mins followed by PHA addition and measured after 20 to 24 hrs by ELISA
row,SMILES,IC50
1,"Cc1ccc(C2=NOC(C)(C)C2=O)cc1-c1ccc(NC(=O)c2c(F)cccc2F)cc1 [US10292981, Example 3]",69 nM
2,"Cc1ccc(C2=NOC(C)(C)C2=O)cc1-c1ccc(NC(=O)c2c(F)cccc2F)nc1 [US10292981, Example 4]",178 nM
3,"Cc1ccc(-c2nn(C)c(=O)o2)cc1-c1ccc(NC(=O)c2c(F)cccc2F)cc1 [US10292981, Example 33]",34 nM
4,"CCn1nc(-c2ccc(C)c(-c3ccc(NC(=O)c4c(F)cccc4F)cc3)c2)oc1=O [US10292981, Example 34]",78 nM
5,"Cc1ccc(C2=NOC(C)(C)C2)cc1-c1cnc(NC(=O)c2c(F)cccc2F)cn1 [US10292981, Example 53]",328 nM
6,"Cc1ccc(C2=NOC(C)(C)C2=O)cc1-c1cnc(NC(=O)c2ccccc2Cl)cn1 [US10292981, Example 78]",171 nM
7,"Cc1ccc(C2=NOC(C)(C)C2=O)cc1-c1cnc(NC(=O)c2c(F)cccc2Cl)cn1 [US10292981, Example 80]",65 nM
8,"Cc1ccc(-c2nn(C)c(=O)o2)cc1-c1cnc(NC(=O)c2c(F)cccc2F)cn1 [US10292981, Example 87]",64 nM
9,"Cc1ccc(C2=NOC(C)(C)C2=O)cc1-c1cnc(NC(=O)c2c(F)cncc2F)cn1 [US10292981, Example 114]",94 nM
10,"Cc1ccc(C2=NOC(C)(C)C2=O)cc1-c1cnc(C(=O)Nc2c(F)cccc2F)cn1 [US10292981, Example 121]",150 nM
